According to ChEMBL document CHEMBL3352261, “Discovery of inhibitors of the mitotic kinase TTK based on N-(3-(3-sulfamoylphenyl)-1H-indazol-5-yl)-acetamides and carboxamides” (Bioorg Med Chem, 2014):
Values after ≈ are worked out from the molar mass of the structure shown. Active and inactive are the calls of the source. The rule behind the calls is not given here.

How the values were obtained:
A549 = experiment: Growth inhibition of human A549 cells after 5 days by SRB assay; type: functional; conditions: A549, 120 h
Cytochrome P450 1A2 = molecular target: T1, Cytochrome P450 1A2 (Homo sapiens, UniProt P05177); experiment: Inhibition of CYP1A2 in supersomes (unknown origin) using CEC as substrate after 30 mins; type: ADME
T1 sequence (P05177 whole entry): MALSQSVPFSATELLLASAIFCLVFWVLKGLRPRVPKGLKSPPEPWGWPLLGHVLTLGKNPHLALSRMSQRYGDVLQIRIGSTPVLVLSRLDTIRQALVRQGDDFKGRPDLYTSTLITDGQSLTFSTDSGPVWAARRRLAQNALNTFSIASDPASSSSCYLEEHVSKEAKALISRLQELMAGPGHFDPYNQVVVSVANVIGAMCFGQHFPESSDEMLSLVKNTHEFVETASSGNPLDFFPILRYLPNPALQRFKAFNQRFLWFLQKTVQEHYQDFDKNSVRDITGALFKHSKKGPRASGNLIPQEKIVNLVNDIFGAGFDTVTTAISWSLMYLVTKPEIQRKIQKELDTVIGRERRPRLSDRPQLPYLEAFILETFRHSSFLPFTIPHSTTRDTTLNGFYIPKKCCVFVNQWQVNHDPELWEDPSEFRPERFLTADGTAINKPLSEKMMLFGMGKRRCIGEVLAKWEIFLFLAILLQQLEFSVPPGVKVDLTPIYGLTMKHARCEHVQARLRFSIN

[1] = molecular target: Serine/threonine-protein kinase Chk2 (Homo sapiens, UniProt O96017); experiment: Inhibition of CHK2 (unknown origin) by FRET-based homogenous assay
Sequence of Serine/threonine-protein kinase Chk2 (O96017 whole entry): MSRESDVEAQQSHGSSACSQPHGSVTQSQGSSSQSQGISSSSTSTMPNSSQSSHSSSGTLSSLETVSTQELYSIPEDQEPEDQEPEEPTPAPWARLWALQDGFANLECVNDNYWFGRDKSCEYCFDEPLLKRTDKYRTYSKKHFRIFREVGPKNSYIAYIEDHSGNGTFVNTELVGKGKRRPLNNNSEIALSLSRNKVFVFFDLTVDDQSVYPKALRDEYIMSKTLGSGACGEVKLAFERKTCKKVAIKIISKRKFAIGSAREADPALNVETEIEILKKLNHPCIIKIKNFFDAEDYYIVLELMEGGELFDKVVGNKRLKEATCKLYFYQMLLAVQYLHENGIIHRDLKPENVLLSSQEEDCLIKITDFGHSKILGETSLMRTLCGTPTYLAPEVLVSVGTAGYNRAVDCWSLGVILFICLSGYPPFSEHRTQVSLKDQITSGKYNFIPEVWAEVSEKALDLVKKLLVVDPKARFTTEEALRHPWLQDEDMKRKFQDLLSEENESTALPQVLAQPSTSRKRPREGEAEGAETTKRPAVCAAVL

Cytochrome P450 3A4 [2] = molecular target: T2, Cytochrome P450 3A4 (Homo sapiens, UniProt P08684); experiment: Inhibition of CYP3A4 in supersomes (unknown origin) using Dibenzylfluorescein as substrate after 10 mins; type: ADME
T2 sequence (P08684 whole entry): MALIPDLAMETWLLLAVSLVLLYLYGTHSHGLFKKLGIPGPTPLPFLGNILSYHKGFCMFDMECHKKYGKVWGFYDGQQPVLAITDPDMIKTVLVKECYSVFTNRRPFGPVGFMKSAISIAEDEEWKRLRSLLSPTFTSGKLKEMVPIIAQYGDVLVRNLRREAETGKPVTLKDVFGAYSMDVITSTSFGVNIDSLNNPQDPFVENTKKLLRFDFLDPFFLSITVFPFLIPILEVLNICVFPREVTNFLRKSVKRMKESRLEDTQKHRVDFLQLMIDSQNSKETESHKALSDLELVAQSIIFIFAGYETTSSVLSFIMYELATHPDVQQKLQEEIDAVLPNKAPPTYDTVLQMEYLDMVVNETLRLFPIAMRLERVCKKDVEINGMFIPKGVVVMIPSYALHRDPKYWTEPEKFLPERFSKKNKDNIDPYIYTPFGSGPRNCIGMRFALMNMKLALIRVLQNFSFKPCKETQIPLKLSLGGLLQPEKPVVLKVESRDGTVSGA

Cytochrome P450 2D6 = Cytochrome P450 2D6 (Homo sapiens, UniProt P10635); experiment: Inhibition of CYP2D6 in supersomes (unknown origin) using AMMC as substrate after 30 mins; type: ADME
Sequence of Cytochrome P450 2D6 (P10635 whole entry, the tested form may be a part): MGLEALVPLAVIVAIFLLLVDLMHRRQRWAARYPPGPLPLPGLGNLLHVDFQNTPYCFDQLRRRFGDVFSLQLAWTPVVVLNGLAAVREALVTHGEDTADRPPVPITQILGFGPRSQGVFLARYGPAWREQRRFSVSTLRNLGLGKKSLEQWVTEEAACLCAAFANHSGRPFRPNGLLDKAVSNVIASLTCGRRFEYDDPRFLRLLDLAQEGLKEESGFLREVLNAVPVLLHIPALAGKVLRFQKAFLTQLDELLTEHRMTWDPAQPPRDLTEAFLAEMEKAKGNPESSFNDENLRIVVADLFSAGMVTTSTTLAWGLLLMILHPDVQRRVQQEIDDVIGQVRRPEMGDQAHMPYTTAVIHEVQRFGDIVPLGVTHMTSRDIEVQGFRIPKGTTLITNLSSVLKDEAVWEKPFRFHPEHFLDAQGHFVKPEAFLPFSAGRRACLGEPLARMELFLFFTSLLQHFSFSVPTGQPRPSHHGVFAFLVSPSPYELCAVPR

[3] = molecular target: T3, Dual specificity protein kinase TTK (Homo sapiens, UniProt P33981); experiment: Inhibition of SUMO-tagged human TTK (1-275 residues) compound pre-incubated for 15 mins prior ATP addition by MBP-based assay
T3 sequence (P33981 whole entry): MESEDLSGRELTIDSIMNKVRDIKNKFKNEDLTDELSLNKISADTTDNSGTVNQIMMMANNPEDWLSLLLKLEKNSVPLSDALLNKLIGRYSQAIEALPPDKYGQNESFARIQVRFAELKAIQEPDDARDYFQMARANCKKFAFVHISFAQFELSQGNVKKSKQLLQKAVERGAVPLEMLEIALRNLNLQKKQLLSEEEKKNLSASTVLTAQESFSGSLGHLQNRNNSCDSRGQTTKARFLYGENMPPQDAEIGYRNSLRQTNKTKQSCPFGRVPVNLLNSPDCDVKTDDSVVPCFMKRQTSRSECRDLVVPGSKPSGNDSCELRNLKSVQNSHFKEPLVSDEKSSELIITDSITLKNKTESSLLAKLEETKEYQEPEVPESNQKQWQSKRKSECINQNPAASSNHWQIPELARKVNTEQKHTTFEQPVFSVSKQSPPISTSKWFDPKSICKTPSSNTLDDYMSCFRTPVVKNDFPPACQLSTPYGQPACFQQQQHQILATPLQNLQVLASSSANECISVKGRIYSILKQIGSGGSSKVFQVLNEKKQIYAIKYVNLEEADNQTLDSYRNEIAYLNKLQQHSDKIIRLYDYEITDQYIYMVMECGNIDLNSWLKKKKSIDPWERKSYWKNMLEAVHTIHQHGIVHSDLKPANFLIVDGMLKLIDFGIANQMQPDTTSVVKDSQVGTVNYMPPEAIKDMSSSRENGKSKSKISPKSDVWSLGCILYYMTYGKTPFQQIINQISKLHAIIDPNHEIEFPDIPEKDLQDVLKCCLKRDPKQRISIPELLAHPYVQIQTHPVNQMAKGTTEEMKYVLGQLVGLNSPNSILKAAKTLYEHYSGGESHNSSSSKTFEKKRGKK

Aurora kinase B = Aurora kinase B (Homo sapiens, UniProt Q96GD4); experiment: Inhibition of Aurora B (unknown origin) by FRET-based homogenous assay
Sequence of Aurora kinase B (Q96GD4 whole entry): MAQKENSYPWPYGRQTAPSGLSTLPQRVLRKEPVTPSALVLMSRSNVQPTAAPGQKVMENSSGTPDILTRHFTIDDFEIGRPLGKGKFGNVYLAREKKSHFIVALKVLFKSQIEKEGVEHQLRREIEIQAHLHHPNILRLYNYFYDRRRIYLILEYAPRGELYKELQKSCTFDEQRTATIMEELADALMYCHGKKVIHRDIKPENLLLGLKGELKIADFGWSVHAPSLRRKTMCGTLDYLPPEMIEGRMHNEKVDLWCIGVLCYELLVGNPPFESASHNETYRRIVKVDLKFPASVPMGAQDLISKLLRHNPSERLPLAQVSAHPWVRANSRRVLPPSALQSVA

MDA-MB-468 = experiment: Growth inhibition of human MDA-MB-468 cells after 5 days by SRB assay; type: functional; conditions: MDA-MB-468, 120 h
[4] = molecular target: Serine/threonine-protein kinase PLK1 (Homo sapiens, UniProt P53350); experiment: Inhibition of PLK1 (unknown origin) by FRET-based homogenous assay
Sequence of Serine/threonine-protein kinase PLK1 (P53350 whole entry): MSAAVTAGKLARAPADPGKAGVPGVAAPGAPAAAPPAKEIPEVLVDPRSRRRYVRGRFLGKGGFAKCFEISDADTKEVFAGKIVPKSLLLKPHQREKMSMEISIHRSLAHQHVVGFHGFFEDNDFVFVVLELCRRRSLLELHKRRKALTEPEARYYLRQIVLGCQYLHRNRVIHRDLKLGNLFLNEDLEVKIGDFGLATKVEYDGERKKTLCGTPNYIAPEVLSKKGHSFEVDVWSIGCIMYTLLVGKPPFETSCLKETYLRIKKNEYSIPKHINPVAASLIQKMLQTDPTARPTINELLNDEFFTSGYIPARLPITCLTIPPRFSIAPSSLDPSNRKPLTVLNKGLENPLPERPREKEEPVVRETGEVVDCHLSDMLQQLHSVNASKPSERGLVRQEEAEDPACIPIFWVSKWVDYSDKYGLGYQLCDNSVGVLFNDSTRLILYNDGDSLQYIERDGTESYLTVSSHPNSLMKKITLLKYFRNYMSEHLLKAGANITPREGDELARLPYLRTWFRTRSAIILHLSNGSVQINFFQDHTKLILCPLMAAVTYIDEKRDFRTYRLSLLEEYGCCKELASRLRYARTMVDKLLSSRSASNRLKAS

Aurora kinase A = molecular target: T4, Aurora kinase A (Homo sapiens, UniProt O14965); experiment: Inhibition of Aurora A (unknown origin) by FRET-based homogenous assay
T4 sequence (O14965 whole entry): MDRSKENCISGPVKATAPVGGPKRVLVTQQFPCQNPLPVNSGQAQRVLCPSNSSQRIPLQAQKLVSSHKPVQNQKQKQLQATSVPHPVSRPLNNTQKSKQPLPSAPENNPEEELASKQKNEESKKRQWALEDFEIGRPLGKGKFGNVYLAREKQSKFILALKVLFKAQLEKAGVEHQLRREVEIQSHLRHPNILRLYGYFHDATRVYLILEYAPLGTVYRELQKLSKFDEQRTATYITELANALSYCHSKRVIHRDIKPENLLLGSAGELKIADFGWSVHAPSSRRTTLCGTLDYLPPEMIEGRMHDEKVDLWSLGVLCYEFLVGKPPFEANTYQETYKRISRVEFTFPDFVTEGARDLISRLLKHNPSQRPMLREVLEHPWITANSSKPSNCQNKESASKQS

[5] = Growth inhibition of human HCT116 cells after 5 days by SRB assay; type: functional; conditions: HCT-116, 120 h
Cytochrome P450 3A4 [6] = molecular target: T2, Cytochrome P450 3A4; experiment: Inhibition of CYP3A4 in supersomes (unknown origin) using 7-benzyloxy-4-trifluoromethylcoumarin as substrate after 30 mins; type: ADME
[7] = Permeability of the compound at pH 7.4 by PAMPA; type: ADME; conditions: read-out: permeability
[8] = Solubility of the compound at pH 7.4; type: physicochemical; conditions: buffer
Cytochrome P450 2C19 = Cytochrome P450 2C19 (Homo sapiens, UniProt P33261); experiment: Inhibition of CYP2C19 in supersomes (unknown origin) using MFC as substrate after 30 mins; type: ADME
Sequence of Cytochrome P450 2C19 (P33261 whole entry): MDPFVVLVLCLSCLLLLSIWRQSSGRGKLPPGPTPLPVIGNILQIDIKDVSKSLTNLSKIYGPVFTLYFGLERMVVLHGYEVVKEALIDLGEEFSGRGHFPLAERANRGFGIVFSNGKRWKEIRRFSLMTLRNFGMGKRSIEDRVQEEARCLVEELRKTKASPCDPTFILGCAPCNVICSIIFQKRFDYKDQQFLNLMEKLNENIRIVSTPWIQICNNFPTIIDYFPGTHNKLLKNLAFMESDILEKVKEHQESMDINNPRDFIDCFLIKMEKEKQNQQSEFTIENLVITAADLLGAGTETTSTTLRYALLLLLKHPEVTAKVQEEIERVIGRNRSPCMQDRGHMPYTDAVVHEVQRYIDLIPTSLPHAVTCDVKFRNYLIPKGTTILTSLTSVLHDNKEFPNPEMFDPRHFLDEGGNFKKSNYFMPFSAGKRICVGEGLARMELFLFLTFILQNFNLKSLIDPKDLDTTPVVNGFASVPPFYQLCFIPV

Cytochrome P450 2C9 = Cytochrome P450 2C9 (Homo sapiens, UniProt P11712); experiment: Inhibition of CYP2C9 in supersomes (unknown origin) using MFC as substrate after 30 mins; type: ADME
Sequence of Cytochrome P450 2C9 (P11712 whole entry): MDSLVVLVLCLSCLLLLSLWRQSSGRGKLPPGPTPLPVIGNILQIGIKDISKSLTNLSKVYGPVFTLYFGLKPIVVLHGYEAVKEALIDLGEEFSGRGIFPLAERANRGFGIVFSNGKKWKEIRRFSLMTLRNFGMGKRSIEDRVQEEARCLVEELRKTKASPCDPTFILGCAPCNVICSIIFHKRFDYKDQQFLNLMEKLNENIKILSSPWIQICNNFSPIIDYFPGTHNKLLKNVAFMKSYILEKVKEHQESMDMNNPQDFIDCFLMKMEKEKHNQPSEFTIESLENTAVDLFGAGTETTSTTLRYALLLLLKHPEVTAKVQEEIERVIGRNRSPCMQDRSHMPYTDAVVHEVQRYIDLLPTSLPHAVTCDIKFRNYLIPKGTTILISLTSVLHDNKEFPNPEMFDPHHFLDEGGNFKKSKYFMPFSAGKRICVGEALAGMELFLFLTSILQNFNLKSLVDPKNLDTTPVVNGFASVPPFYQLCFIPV

[9] = Cell cycle arrest in human HCT116 cells assessed as accumulation at sub-G1 phase at 1 uM after 2 days by flow cytometry; type: functional, cell-based; conditions: HCT-116
[10] = molecular target: T3, Dual specificity protein kinase TTK; experiment: Inhibition of TTK in human HCT116 cells assessed as phosphorylation of histone H3 at Ser10 residue after 4 hrs by immunoassay; type: cell-based, HCT-116

NS(=O)(=O)c1cccc(-c2n[nH]c3ccc(NC(=O)C(c4ccsc4)N4CCCC4)cc23)c1 (racemic)
GI50 (A549): 90 nM
IC50 (Cytochrome P450 1A2): > 10000 nM
IC50 [1]: 100 nM
IC50 (Cytochrome P450 3A4 [2]): > 1000 nM
IC50 (Cytochrome P450 2D6): 10000 nM
IC50 [3]: 2.9 nM
IC50 (Aurora kinase B): 720 nM
GI50 (MDA-MB-468): 90 nM
IC50 [4]: > 50000 nM
IC50 (Aurora kinase A): 900 nM
GI50 [5]: 70 nM
IC50 (Cytochrome P450 3A4 [6]): 4000 nM
Papp [7]: 4.2 ×10⁻⁶ cm/s
solubility [8]: 9 µg/mL (≈ 18.7 µM)
IC50 (Cytochrome P450 2C19): 5300 nM
IC50 (Cytochrome P450 2C9): 900 nM
Activity [9]: Active
EC50 [10]: 420 nM

CCc1ccccc1C(C(=O)Nc1ccc2[nH]nc(-c3cccc(S(N)(=O)=O)c3)c2c1)N(C)C (racemic)
GI50 (A549): 160 nM
IC50 (Cytochrome P450 1A2): > 10000 nM
IC50 [1]: 420 nM
IC50 (Cytochrome P450 3A4 [2]): 2900 nM
IC50 (Cytochrome P450 2D6): 5000 nM
IC50 [3]: 3.6 nM
IC50 (Aurora kinase B): 480 nM
GI50 (MDA-MB-468): 660 nM
IC50 [4]: > 50000 nM
IC50 (Aurora kinase A): 400 nM
GI50 [5]: 100 nM
IC50 (Cytochrome P450 3A4 [6]): 700 nM
Papp [7]: 19 ×10⁻⁶ cm/s
solubility [8]: 1.4 µg/mL (≈ 2.93 µM)
IC50 (Cytochrome P450 2C19): 2300 nM
IC50 (Cytochrome P450 2C9): 2500 nM
Activity [9]: Active
EC50 [10]: 520 nM
